Patent US9566265B2, “Carbazole compounds and therapeutic uses of the compounds” (Incuron, LLC, priority 2008, dated 2017)

How the values were obtained:
Topo II [1] = assay: Topo II inhibition in cells (Table I); assay type: cell-based
Topo II [2] = assay: Topo II inhibition in vitro (Table I); assay type: biochemical
ATM/ATR = ATM/ATR activation (Table I); assay type: cell-based
[3] = test system: thirteen cancer cell lines; assay: relative cell survival of cancer cell lines, methylene blue staining (FIG. 11); assay type: cell-based; conditions: 24 hours treatment, then compound-free medium
Method: FIG. 11 contains plots of concentration of Compound 100 (μM) vs. relative cell survival for thirteen cancer cell lines showing that a present carbazole compound is an effective agent against numerous types of cancer;
Each of the cell lines presented in FIG. 11 was seeded into 96 well plates. The next day, cells were treated with a range of concentrations of Compound 100. Treatment occurred for 24 hours, at which time compound-filled medium was replaced with compound-free medium and cells were allowed to grow until the control wells, which were treated with only vehicle control (DMSO), reached a monolayer (typically within 48 hours). Cells then were fixed and stained with 0.5% methylene blue in 50% methanol. The dye was eluted with 1% SDS and the absorbance measured at 650 nm. Data is presented as the absorbance at 650 nm versus the concentration of Compound 100.

Chk1/2 = Chk1/2 phosphorylation (Table I); assay type: cell-based
p53 = p53 activation assay, p53 responsive luciferase reporter cell line; assay type: cell-based, human; conditions: Homo sapiens, 16 h, HT1080-L or RCC45ConALuc reporter cells, 16 h; read-out: EC50 value (p53 activation)
Method: The potency of a present carbazole compound is determined by measuring an ability of the compound to inhibit NF-κB activity or to activate p53. […] Theoretically, such assays of the dose-response effect of activator compounds can be described as a sigmoidal curve expressing a degree of activation as a function of concentration. The curve also theoretically passes through a point at which the concentration is sufficient to increase activity to a level that is 50% that of the difference between a baseline and the maximal activity in the assay. […] Determination of an EC50 value is made using conventional biochemical (acellular) assay techniques or cell-based assay techniques.
The potency of a carbazole compound is determined by measuring an ability of the compound to activate p53.
The p53 activation assay for determination of the EC50 value was performed as follows:
HT1080-L (human fibrosarcoma cells with ConALuc reporter)
RCC45ConALuc (human renal cell carcinoma cell line with ConALuc reporter)
1. Two types of standard cells were used, either HT1080-L or RCC45ConALuc cells. Both cell lines stably express a p53 responsive luciferase reporter construct.
2. HT1080-L cells were grown in DMEM medium containing 10% FBS. RCC45ConALuc cells were grown in RPMI medium containing 10% FBS (Pen/Strep can be added to a final concentration of 1%, if desired). Both cell lines were grown in a humidified incubator at 37° C. with 5% CO2. For normal culturing, both cell lines were split using 1× trypsin-EDTA at a ratio of 1:20 for HT1080-L and 1:5 for RCC45ConALuc cells every 3-4 days (when cells are 80-90% confluent).
3. A day before the experiment, the cells are trypsinized for about 5 minutes in 1× tripsin/EDTA solution in 37° C. incubator and plated in 96 well plates. HT1080-L cells were seeded at a density of 1×10^4/well in standard DMEM medium in a volume of 50 μl. RCC45ConALuc were seeded at a density of 2×10^4/well in the volume of 50 uL in standard RPMI medium.
4. The next day, various carbazole compounds were prepared by dilution of stock solutions in standard DMEM medium such that the cells were treated with the final chemical concentrations in Table 1 below. Stock solutions were made up in DMSO. Typically, chemicals were made up as 20 mM stock solutions.
5. Each tested compound used two rows of a 96-well plate, thus four compounds (e.g., W, X, Y, Z) were tested in one plate simultaneously. In addition to test compounds, each plate included positive and negative controls. As positive control, 9aa was used at a dose of 3 μM. As a negative control, DMSO was used in final concentration 0.1%.
1. Dilutions of chemicals added to the plate were made up as 2× concentrations in standard DMEM and added to corresponding well in a volume of 50 μl.
2. Chemicals were diluted in standard DMEM by two time serial dilutions starting from 40 μM (2× of highest concentration, e.g., 20 μM). For one cell line, the minimum volume was 125 μL of 2× working solution of chemical of each concentration in standard DMEM.
4. Sixteen hours following compound addition, all wells with the highest concentrations of compounds are checked microscopically for the presence of toxic effect, because death of cells caused by compounds may not allow detecting luciferase activity. If cytotoxocity is evident, other doses of the same compounds were checked for the presence of toxicity. The lowest dose causing toxic effect was recorded.
5. After microscopic examination, 15 μl of Bright Glo luciferase assay system were added to each well and after 5 min incubation at RT, the plates were read on a 96 well plate luminometer with a measurement time of 0.1 sec. A shaking step was included before measurement.
6. The folds of luciferase activation for each concentration of each chemical were calculated by dividing the detected luciferase activity at each chemical concentration by the average of the luciferase activity for the DMSO control on the same plate.

γH2AX = γH2AX staining (Table I); assay type: cell-based

## CCN(CC)CCn1c2ccc([N+](=O)[O-])cc2c2cc([N+](=O)[O-])ccc21 [Compound 100]
Topo II [1]
  Topo II inhibition in cells: no
Topo II [2]
  Topo II inhibition in vitro: ligation
Ames test
  Ames test: negative
ATM/ATR
  ATM/ATR activation: no
[3]
  anti-cancer activity against tested cancer cells: significant anti-cancer activity
Chk1/2
  Chk1/2 phospho: no
p53
  EC50: 1.3 µM
γH2AX
  γH2AX staining: no
